# Measured values: patent publication US20110313056A1 (BIO SYNTECH CANADA INC., priority 2005, published 2011)
# Legend:
# [1] = Diffusion of GP from chitosan gel into DMEM bath, phosphorus by Kjeldahl digestion; assay type: physicochemical; conditions: GP concentration in DMEM bath over time vs free diffusion model
# From the text: Here we provide evidence that supports the notion that there is no ionic cross-link between the polyelectrolyte and the counter-ion, using gels kept in contact with a bath solution to allow the weak electrolyte (glycerol 2-phosphate in this example) to diffuse out of the gel. […] A simple diffusion model predicted the diffusion profile and allowed the calculation of the diffusion constant in the gel (see section “Diffusion from a gel to a washing solution”) showing an absence of binding with the chitosan gel component.
# A 7.5 mL solution (see Table 6) containing chitosan (2.93% w/v Protosan UP CL 213) was placed on ice at 4° C. To this solution, we added 2.25 mL glucosamine (2.16% w/v) drop by drop every 15 seconds followed by 1 mL glycerol 2-phosphate (GP) (33.3% w/v) and 2 mL of hydroxyethyl cellulose. […]
# Samples of gel were then taken for analysis of phosphorus content and additional gel samples also taken following three subsequent washes in DMEM for 60 minutes each. Phosphorus was quantified using the established method of Kjeldahl digestion (Liao, N., Total phosphorus in Kjeldahl digests, Milwaukee, Wis.: LACHAT Instruments, 25 p., QuickChem Method 10-115-01-1-C, 1993) followed by the analysis of the absorption at 880 nm of the PO4^3− complex with ammonium molybdate and antimony potassic tartrate.
# Concentration cp^m is the measured concentration from the absorption at 880 nm. […]
# [2] = Glycerol 2-phosphate titration followed by 31P chemical shift and pH at different temperatures; assay type: physicochemical
# From the text: In order to measure the variation of the polyelectrolyte ionization degree (chitosan in the present case), we performed NMR measurements of the glycerol 2-phosphate (GP) ^31P chemical shift. Glycerol 2-phosphate titration curve at different temperatures allow determination pKa2^GP, δa and δb by fitting pH and δ values of the following equation
# where δa and δb are the chemical shifts of ^31P in the monovalent and divalent form of GP, respectively.
# This last equation is valid for ideal solutions where the proton activity coefficient is γH+=1.
# We dissolve 0.594 g of glycerol 2-phosphate (Sigma, No. Cat. G-9891, 297 g/mol with 4.5 moles H2O per mole of GP) in 18 mL H2Odd and 2 mL D2O (Aldrich, No. Cat. 15,188-2-250G) in a graduate cylinder giving a CGP concentration of 100 mM. A total of 11 solutions (see Table 3) with different ionization degree are prepared from this base solution. The pH is measured with an Accumet meter, model 20 using an electrode 9803BN from Orion.
# [3] = literature (Voet and Voet); cited from earlier work
Structure (SMILES),binding of GP to the components of the gel [1],pKa2^GP ([2]; 5 ° C.),pKa2^GP ([2]; 15 ° C.),pKa2^GP ([2]; 25 ° C.),pKa2^GP ([2]; 37 ° C.),Ka1^P [3],Ka2^P [3]
"O=P(O)(O)OC(CO)CO [GP, glycerol 2-phosphate]",lack of binding,6.13,6.14,6.16,6.16,–,–
"O=P(O)(O)O [phosphate, inorganic phosphate]",–,–,–,–,–,approximately 2.2,~6.8
